Laboratory results from patent publication US20050215529A1, “Method of treating oxidative stress-associated conditions with isopentenyl diphosphate” (THE REGENTS OF THE UNIVERSITY OF MICHIGAN, priority 2004, published 2005).
“And” between values parts separate entries of the source, which are not always exact repeats. Equal values may be shown once. Read-outs that look alike come from different tables or passages of the source.

Tests used:
[1] = tested on: human fibroblastoid M1 cells; assay: Measurement of cAMP levels (EIA kit); type: cell-based; conditions: 10 μM agent, in presence of RO20-1724; FIG. 18
Description: Cyclic AMP levels were measured using a kit that is commercially-available from Amersham Biosciences of Piscataway, N.J., under the name “EIA Kit” (Cat. No. RPN225). Specifically, human fibroblastoid M1 cells were cultured overnight in 6-well tissue culture plates, 2×10^5 cells per well. Before stimulation, the cells were washed once with serum-free DMEM medium and incubated in 37° C. with 0.2 millimolar (mM) RO20-1724, a phosphodiesterase inhibitor, for fifteen minutes. Following this incubation period, 10 μM of either 2-chloroadenosine or isopentenyl diphosphate were added to each cell culture, and the cells cultures were thereafter maintained at 37° C. for the indicated time in the presence of phosphodiesterase inhibitor (RO20-1724). Determination of cAMP levels was performed with the EIA Kit in accordance with its manufacturer's instructions.
In another test, human fibroblastoid M1 cells also were stimulated with 10 μM 2-chloroadenosine or isopentenyl diphosphate, and cAMP levels were quantified.

[2] = tested on: A2bAR-transfected HEK293 cells; assay: Comet assay in A2bAR-transfected HEK293 cells; type: cell-based; conditions: Homo sapiens, 100 μM H2O2, read-out: IC50, DNA damage protection
Description: (§1) A single-cell gel electrophoresis (SCGE) assay, known as the “Comer” assay was performed to detect/quantify DNA damage by identifying DNA-strand breakage in individual cells, for example. The assay was performed using a kit commercially-available from Trevigen, Inc., of Gaithersburg, Md., as “CometAssay™.” See P. J. McCarthy et al. (1997) Mutagenesis 12:209-214; A. R. Collins et al. (2001) Biochem. Soc. Trans. 29:337-341. Sub-confluent cells were washed with phosphate buffered saline (PBS) and detached from the tissue culture flasks using a 0.05% trypsin solution. After centrifugation, the cells were washed and re-suspended in serum-free DMEM medium. […]
(§2) The slides were placed at 4° C. in the dark for ten minutes and subsequently immersed in pre-chilled Lysis Solution at 4° C. for an additional thirty minutes. […] Comet tail fluorescence intensity was quantified with a Diagnostic Instruments digitized camera, mounted on a Nikon Eclipse E400 microscope, using Scion Image software. Quantification of comet fluorescence was performed as described in P. J. McCarthy et al. (1997) Mutagenesis 12:209-214. […] The data are shown either in arbitrary fluorescent units, or as % DNA damage protection (i.e., the percent decrement in tail fluorescence intensity with test reagent, relative to the intensity recorded in cells treated with hydrogen peroxide only)±S.E.M. […]

[3] = tested on: A2aAR-transfected HEK293 cells; assay: Comet assay in A2aAR-transfected HEK293 cells; type: cell-based; conditions: Homo sapiens, 100 μM H2O2, read-out: IC50, DNA damage protection
Description: as §1, §2

[4] = tested on: p53-deficient cell lines HL60 and K562 and the nucleotide excision repair-deficient line XPA; assay: DNA damage protection in p53-deficient and nucleotide excision repair-deficient lines (data not shown); type: cell-based
[5] = tested on: human fibroblastoid M1 cells; assay: Comet assay, protection against H2O2-induced DNA damage; type: cell-based
Description: (§3) A single-cell gel electrophoresis (SCGE) assay, known as the “Comer” assay was performed to detect/quantify DNA damage by identifying DNA-strand breakage in individual cells, for example. The assay was performed using a kit commercially-available from Trevigen, Inc., of Gaithersburg, Md., as “CometAssay™.” See P. J. McCarthy et al. (1997) Mutagenesis 12:209-214; A. R. Collins et al. (2001) Biochem. Soc. Trans. 29:337-341. Sub-confluent cells were washed with phosphate buffered saline (PBS) and detached from the tissue culture flasks using a 0.05% trypsin solution. After centrifugation, the cells were washed and re-suspended in serum-free DMEM medium. The cells were divided into Eppendorf tubes (1.5 ml), and centrifuged at 2500 rotations per minutes (rpm) for ten minutes. Signal-modulating agents were added and samples were kept in a 37° C. incubator for thirty minutes. In some experiments, the cells were pre-incubated with various inhibitors for the indicated times at 37° C. At the end of the incubation period with signal-modulating chemicals, the cells were washed with PBS and treated with 100 μM H2O2 in 0.5 ml PBS on ice for twenty minutes. Following the hydrogen peroxide treatment, the cells were immediately microfuged for fifteen seconds. The cells were twice washed with cold PBS, and re-suspended at 1.0×10^5 cells/ml in ice-cold PBS. Five microliter cell suspension were each mixed with 50 μl molten LMAgarose and, thereafter, the mixtures were placed onto slides (CometSlide™).
(§4) The slides were placed at 4° C. in the dark for ten minutes and subsequently immersed in pre-chilled Lysis Solution at 4° C. for an additional thirty minutes. Following this incubation, excess buffer was tapped off from the slides. Subsequently, the slides were placed in a 50 ml Coplin jar containing alkali buffer for thirty minutes at room temperature in the dark and then immersed in 50 ml of TBE buffer for five minutes. The slides were then placed flat onto a gel tray submerged in TBE buffer in a horizontal electrophoresis apparatus, and aligned equidistant from the electrodes. Electrophoresis was performed at one volt per centimeter (cm) for ten minutes. Following this electrophoresis, the samples were fixed in 100% methanol for five minutes and 100% ethanol for five minutes. After drying, 50 μl of diluted SYBR Green Concentrate was added onto each circle of agarose. Comet tail fluorescence intensity was quantified with a Diagnostic Instruments digitized camera, mounted on a Nikon Eclipse E400 microscope, using Scion Image software. Quantification of comet fluorescence was performed as described in P. J. McCarthy et al. (1997) Mutagenesis 12:209-214. Each data point was derived from 30 to 100 individual cells. The data are shown either in arbitrary fluorescent units, or as % DNA damage protection (i.e., the percent decrement in tail fluorescence intensity with test reagent, relative to the intensity recorded in cells treated with hydrogen peroxide only)±S.E.M.
A dose response analysis of DNA damage protection also was performed to determine the efficacy of various doses of isopentenyl diphosphate versus 2-chloroadenosine. The analysis was carried out by pre-incubating human fibroblastoid M1 cells for thirty minutes with different concentrations of isopentenyl diphosphate or 2-chloroadenosine prior to incubating the cells with 100 μM H2O2 to induce oxidative stress. Following induction of oxidative stress, DNA damage was quantified using the Comet assay, as described above.

[6] = tested on: A1AR-transfected HEK293 cells; assay: Comet assay in A1AR-transfected HEK293 cells; type: cell-based, human
Description: A single-cell gel electrophoresis (SCGE) assay, known as the “Comer” assay was performed to detect/quantify DNA damage by identifying DNA-strand breakage in individual cells, for example. The assay was performed using a kit commercially-available from Trevigen, Inc., of Gaithersburg, Md., as “CometAssay™.” See P. J. McCarthy et al. (1997) Mutagenesis 12:209-214; A. R. Collins et al. (2001) Biochem. Soc. Trans. 29:337-341. Sub-confluent cells were washed with phosphate buffered saline (PBS) and detached from the tissue culture flasks using a 0.05% trypsin solution. After centrifugation, the cells were washed and re-suspended in serum-free DMEM medium. The cells were divided into Eppendorf tubes (1.5 ml), and centrifuged at 2500 rotations per minutes (rpm) for ten minutes. Signal-modulating agents were added and samples were kept in a 37° C. incubator for thirty minutes. In some experiments, the cells were pre-incubated with various inhibitors for the indicated times at 37° C. At the end of the incubation period with signal-modulating chemicals, the cells were washed with PBS and treated with 100 μM H2O2 in 0.5 ml PBS on ice for twenty minutes. Following the hydrogen peroxide treatment, the cells were immediately microfuged for fifteen seconds. The cells were twice washed with cold PBS, and re-suspended at 1.0×10^5 cells/ml in ice-cold PBS. […]
as §2

[7] = tested on: human fibroblastoid M1 cells; assay: Comet assay, inhibition of 2CA- or IPP-mediated DNA damage protection by antagonists/inhibitors; type: cell-based; design: key to Mechanism of Signal Transduction: PKA / Mechanism of Signal Transduction: Mevalonate Pathway / Mechanism of Signal Transduction: GGT / Mechanism of Signal Transduction: FT / Mechanism of Signal Transduction: Proteasome: “+” indicates a dependence; “−” indicates independence
Description: as §3, §4
Specifically, […], human fibroblastoid M1 cells were incubated for thirty minutes in either H-89 or 8-bromoguanosine-3′,5′-cyclic monophosphate (8-Br-cGMP) (B), or for fifteen minutes in SNAP, at different concentrations. […] Following induction of oxidative stress, DNA damage was quantified using the Comet assay, as described above. Shown in FIGS. 14-16 are graphs illustrating the DNA damage protection as function of the molar concentration of H-89 (FIG. 14), 8-Br-cGMP (FIG. 15), and SNAP (FIG. 16).
In yet another test, human fibroblastoid M1 cells were pre-incubated for fifteen minutes with different concentrations of the A2bAR antagonist, enprofylline (Enpro).

[8] = tested on: human fibroblastoid M1 cells; assay: Measurement of ROS (DCFH-DA fluorescence); type: cell-based; conditions: for H2O2-induced ROS formation: 10 μM agent, 100 μM H2O2, FIG. 4
Description: The presence of reactive oxidative species was measured using commercially-available equipment in accordance with the manufacturer's instructions. Specifically, sub-confluent cells were detached from flasks using 0.05% trypsin and 5×10^3 human fibroblastoid M1 cells per well were seeded into 96-well plates (Falcon 35-3072). After an overnight culture, the cells were twice washed with DMEM-phenol red-free medium. The cells were subsequently treated with various concentrations of signal-modulating agents in the presence of 10 micromolar (μM) DCFH-DA in 100 microliters (μl) DMEM-phenol red-free medium at 37° C. for 30 minutes. This medium was replaced by a 100 μl DMEM-phenol red-free medium containing DCFH-DA and either 50 mU/ml GO, or 100 μM H2O2, and the cultures were subsequently incubated at 37° C. for 30 minutes. After thirty minutes incubation, the plates were read by CytoFluor™ 2300 (Millipore) at an excitation wavelength (Ex) of 480 nm and emission wavelength (Em) of 520 nm, or by Fusion-Alpha HT system (PerkinElmer Life Sciences, Boston, Mass.) at Ex 485 nm and Em 530 nm.
ROS levels were quantified using the Fusion-Alpha HT system, as described above.
To verify the efficiency of that pathway, DCFH-DA-loaded human fibroblastoid M1 cells were incubated with 10 μM 2-chloroadenosine for thirty minutes followed by incubation with 100 μM H2O2 for twenty minutes to induce oxidative stress. […] ROS levels were quantified using the CytoFluor™ 2300 system, as described above.

[9] = tested on: murine L-cell fibroblasts, human cells of lymphoid, fibroblastoid, myeloid, or neuronal lineages; assay: Antioxidative signaling in other cell lineages and species (data not shown); type: cell-based
[10] = dependence of DNA damage protection signaling

## Nc1nc(Cl)nc2c1ncn2[C@@H]1O[C@H](CO)[C@@H](O)[C@H]1O [2CA, 2-chloroadenosine]
[1]
  c[AMP]i over time: triggered an increase
[2]
  IC50: 120 nM
[3]
  IC50: 140 nM
[4]; HL60, K562, XPA, data not shown
  DNA damage protection induction: intact DNA damage protection induction
[5]; 10 μM agent, 100 μM H2O2 for twenty minutes, FIG. 5
  H2O2-mediated DNA damage: prevented H2O2-mediated DNA damage
[5]; Homo sapiens, AR agonists and isoprenyls, M1 cells, 100 μM H2O2, Comet assay, read-out: IC50 (pM), DNA damage protection
  IC50: 2040 pM
[5]; Homo sapiens, M1 cells pre-incubated thirty minutes, then 100 μM H2O2, FIGS. 6 and 7, read-out: IC50, DNA damage protection
  IC50: 2040 pM
[5]; M1 cells, various concentrations, 100 μM H2O2
  triggering of DNA damage protection: triggered DNA damage protection
[6]; A1AR-transfected HEK293 cells, 100 μM H2O2
  DNA damage protection response: failed to transduce the antioxidative signal
[7]; [10]
  Mechanism of Signal Transduction: FT: −
  Mechanism of Signal Transduction: GGT: −
  Mechanism of Signal Transduction: Mevalonate Pathway: −
  Mechanism of Signal Transduction: PKA: +
  Mechanism of Signal Transduction: Proteasome: −
[8]
  H2O2-induced ROS formation: equivalent inhibition of H2O2-induced ROS formation
[9]; data not shown
  response to antioxidative signaling: all could respond

## C=C(C)CCOP(=O)(O)OP(=O)(O)O [IPP, isopentenyl diphosphate]
[1]
  c[AMP]i over time: did not trigger any meaningful increase
[4]
  DNA damage protection induction: intact DNA damage protection induction
[5]
  H2O2-mediated DNA damage: prevented H2O2-mediated DNA damage
  potency relative to 2-chloroadenosine: about 100 times
  triggering of DNA damage protection: triggered DNA damage-protection signaling
[5]; read-out: IC50 (pM), DNA damage protection
  IC50: 17 pM
[5]; read-out: IC50, DNA damage protection
  IC50: 17 pM and ~17 pM
[6]
  DNA damage protection response: responded readily
[7]
  Mechanism of Signal Transduction: FT: −
  Mechanism of Signal Transduction: GGT: +
  Mechanism of Signal Transduction: Mevalonate Pathway: +
  Mechanism of Signal Transduction: PKA: −
  Mechanism of Signal Transduction: Proteasome: +
[8]
  H2O2-induced ROS formation: equivalent inhibition of H2O2-induced ROS formation
[8]; different concentrations, 50 mU/ml GO for thirty minutes, FIG. 3
  ROS generation: efficient at blocking ROS generation
[9]
  response to antioxidative signaling: all could respond
